US12227496B2 (BRISTOL-MYERS SQUIBB COMPANY, priority 2019, dated 2025)

Target: T1, human FXR (Homo sapiens, UniProt Q96RI1)
T1 construct: expressed in transfected cells; host or cells: HEK293 cells stably carrying a 5xGal4-response-element firefly luciferase reporter, transiently transfected with pcDNA3.1-Gal4-FXR
T1 sequence (Q96RI1 262-486 limits assumed): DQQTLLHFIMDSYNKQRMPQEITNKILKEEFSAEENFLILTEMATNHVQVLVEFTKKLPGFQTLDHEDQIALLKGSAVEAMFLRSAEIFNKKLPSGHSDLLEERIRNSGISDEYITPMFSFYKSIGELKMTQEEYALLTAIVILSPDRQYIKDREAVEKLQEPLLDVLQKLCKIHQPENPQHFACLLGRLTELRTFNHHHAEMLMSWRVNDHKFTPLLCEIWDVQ
Assay: transient human FXR/Gal4-luciferase reporter assay
Type: cell-based
Settings: Gal4-hFXR LBD fusion, luciferase reporter in HEK293 cells; response relative to 8 μM GW-4064
In short: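 HEK293 cells stably carrying a 5×Gal4-response-element firefly luciferase reporter were transiently transfected with Gal4-hFXR. They were then incubated overnight at 37 °C with compound serial dilutions in medium containing 10% charcoal/dextran-stripped FBS. Luminescence was read after Steady-Glo addition.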

| EC50 [µM] | Compound |
| --- | --- |
| 0.105 | COCc1nc(-c2cccc(N(CC34CCC(c5nc(C6CC6)no5)(CC3)CC4)C(=O)C3CCCCC3)c2)cs1 [Example 49, N-((4-(3-cyclopropyl-1,2,4-oxadiazol-5-yl)bicyclo[2.2.2]octan-1-yl)methyl)-N-(3-(2-(methoxymethyl)thiazol-4-yl)phenyl)cyclohexanecarboxamide] |
| 0.334 | Cn1nc(-c2cccc(N(CC34CCC(c5nc(C6CC6)no5)(CC3)CC4)C(=O)C3CCOCC3)c2)cc1C1CC1 [Example 50, N-((4-(3-cyclopropyl-1,2,4-oxadiazol-5-yl)bicyclo[2.2.2]octan-1-yl)methyl)-N-(3-(5-cyclopropyl-1-methyl-1H-pyrazol-3-yl)phenyl)tetrahydro-2H-pyran-4-carboxamide] |
| 1.19 | CCn1cc(-c2cccc(N(CC34CCC(c5nc(C6CC6)no5)(CC3)CC4)C(=O)C3CCOCC3)c2)oc1=O [Example 51, N-((4-(3-cyclopropyl-1,2,4-oxadiazol-5-yl)bicyclo[2.2.2]octan-1-yl)methyl)-N-(3-(3-ethyl-2-oxo-2,3-dihydrooxazol-5-yl)phenyl)tetrahydro-2H-pyran-4-carboxamide] |
| 0.189 | COCc1coc(-c2cccc(N(CC34CCC(c5nc(C6CC6)no5)(CC3)CC4)C(=O)C3CCOCC3)c2)n1 [Example 53, N-((4-(3-cyclopropyl-1,2,4-oxadiazol-5-yl)bicyclo[2.2.2]octan-1-yl)methyl)-N-(3-(4-(methoxymethyl)oxazol-2-yl)phenyl)tetrahydro-2H-pyran-4-carboxamide] |
| 0.373 | O=C(C1CCOCC1)N(CC12CCC(c3nc(C4CC4)no3)(CC1)CC2)c1cccc(-c2nnc(C3CC3)o2)c1 [Example 54, N-((4-(3-cyclopropyl-1,2,4-oxadiazol-5-yl)bicyclo[2.2.2]octan-1-yl)methyl)-N-(3-(5-cyclopropyl-1,3,4-oxadiazol-2-yl)phenyl)tetrahydro-2H-pyran-4-carboxamide] |
| 0.739 | O=C(N1CCOCC1)N(CC12CCC(c3nc(C4CC4)no3)(CC1)CC2)c1cccc(-c2nc(C3CC3)no2)c1 [Example 56, N-((4-(3-cyclopropyl-1,2,4-oxadiazol-5-yl)bicyclo[2.2.2]octan-1-yl)methyl)-N-(3-(3-cyclopropyl-1,2,4-oxadiazol-5-yl)phenyl)morpholine-4-carboxamide] |
| 0.819 | O=C(N1CCCCC1)N(CC12CCC(c3nc(C4CC4)no3)(CC1)CC2)c1cccc(-c2nc(C3CC3)no2)c1 [Example 57, N-((4-(3-cyclopropyl-1,2,4-oxadiazol-5-yl)bicyclo[2.2.2]octan-1-yl)methyl)-N-(3-(3-cyclopropyl-1,2,4-oxadiazol-5-yl)phenyl) piperidine-1-carboxamide] |
| 0.413 | O=C(N1CCC(F)(F)CC1)N(CC12CCC(c3nc(C4CC4)no3)(CC1)CC2)c1cccc(-c2nc(C3CC3)no2)c1 [Example 58, N-((4-(3-cyclopropyl-1,2,4-oxadiazol-5-yl)bicyclo[2.2.2]octan-1-yl)methyl)-N-(3-(3-cyclopropyl-1,2,4-oxadiazol-5-yl)phenyl)-4,4-difluoropiperidine-1-carboxamide] |
| 1.38 | CN1CCN(C(=O)N(CC23CCC(c4nc(C5CC5)no4)(CC2)CC3)c2cccc(-c3nc(C4CC4)no3)c2)CC1 [Example 59, N-((4-(3-cyclopropyl-1,2,4-oxadiazol-5-yl)bicyclo[2.2.2]octan-1-yl)methyl)-N-(3-(3-cyclopropyl-1,2,4-oxadiazol-5-yl)phenyl)-4-methylpiperazine-1-carboxamide] |
| 1.02 | CC1CCN(C(=O)N(CC23CCC(c4nc(C5CC5)no4)(CC2)CC3)c2cccc(-c3nc(C4CC4)no3)c2)CC1 [Example 60, N-((4-(3-cyclopropyl-1,2,4-oxadiazol-5-yl)bicyclo[2.2.2]octan-1-yl)methyl)-N-(3-(3-cyclopropyl-1,2,4-oxadiazol-5-yl)phenyl)-4-methylpiperidine-1-carboxamide] |
| 3.67 | O=C(N1CCC(O)CC1)N(CC12CCC(c3nc(C4CC4)no3)(CC1)CC2)c1cccc(-c2nc(C3CC3)no2)c1 [Example 61, N-((4-(3-cyclopropyl-1,2,4-oxadiazol-5-yl)bicyclo[2.2.2]octan-1-yl)methyl)-N-(3-(3-cyclopropyl-1,2,4-oxadiazol-5-yl)phenyl)-4-hydroxypiperidine-1-carboxamide] |
| 1.13 | CC1CN(C(=O)N(CC23CCC(c4nc(C5CC5)no4)(CC2)CC3)c2cccc(-c3nc(C4CC4)no3)c2)CC(C)O1 (stereo not shown) [Example 63, N-((4-(3-cyclopropyl-1,2,4-oxadiazol-5-yl)bicyclo[2.2.2]octan-1-yl)methyl)-N-(3-(3-cyclopropyl-1,2,4-oxadiazol-5-yl)phenyl)-2,6-dimethylmorpholine-4-carboxamide] |
| 4.82 | O=C(N1CCC(N2CCCCC2)CC1)N(CC12CCC(c3nc(C4CC4)no3)(CC1)CC2)c1cccc(-c2nc(C3CC3)no2)c1 [Example 64, N-((4-(3-cyclopropyl-1,2,4-oxadiazol-5-yl)bicyclo[2.2.2]octan-1-yl)methyl)-N-(3-(3-cyclopropyl-1,2,4-oxadiazol-5-yl)phenyl)-[1,4′-bipiperidine]-1′-carboxamide] |
| 0.162 | CC(C)(C)c1noc(C23CCC(CN(C(=O)C4CCOCC4)c4cccc(-c5nc(C6CC6)no5)c4)(CC2)CC3)n1 [Example 69, N-((4-(3-(tert-butyl)-1,2,4-oxadiazol-5-yl)bicyclo[2.2.2]octan-1-yl)methyl)-N-(3-(3-cyclopropyl-1,2,4-oxadiazol-5-yl)phenyl)tetrahydro-2H-pyran-4-carboxamide] |
| 0.307 | COc1cccc(-c2cccc(N(CC34CCC(c5nc(C)no5)(CC3)CC4)C(=O)C3CCCCC3)c2)c1 [Example 72, N-(3′-methoxy-[1,1′-biphenyl]-3-yl)-N-((4-(3-methyl-1,2,4-oxadiazol-5-yl)bicyclo[2.2.2]octan-1-yl)methyl)cyclohexanecarboxamide] |
| 0.517 | COc1cc(-c2cccc(N(CC34CCC(c5nc(C)no5)(CC3)CC4)C(=O)C3CCCCC3)c2)ccn1 [Example 73, N-(3-(2-methoxypyridin-4-yl)phenyl)-N-((4-(3-methyl-1,2,4-oxadiazol-5-yl)bicyclo[2.2.2]octan-1-yl)methyl)cyclohexane carboxamide] |
| 0.151 | COc1cccc(-c2cccc(N(CC34CCC(c5nc(C6CC6)no5)(CC3)CC4)C(=O)C3CCCCC3)c2)c1 [Example 74, N-((4-(3-cyclopropyl-1,2,4-oxadiazol-5-yl)bicyclo[2.2.2]octan-1-yl)methyl)-N-(3′-methoxy-[1,1′-biphenyl]-3-yl)cyclohexanecarboxamide] |
| 0.129 | COc1cc(-c2cccc(N(CC34CCC(c5nc(C6CC6)no5)(CC3)CC4)C(=O)C3CCCCC3)c2)ccn1 [Example 75, N-((4-(3-cyclopropyl-1,2,4-oxadiazol-5-yl)bicyclo[2.2.2]octan-1-yl)methyl)-N-(3-(2-methoxypyridin-4-yl)phenyl)cyclohexane carboxamide] |
| 0.387 | COc1ccc(-c2cccc(N(CC34CCC(c5nc(C)no5)(CC3)CC4)C(=O)C3CCCCC3)c2)cc1 [Example 76, N-(4′-methoxy-[1,1′-biphenyl]-3-yl)-N-((4-(3-methyl-1,2,4-oxadiazol-5-yl)bicyclo[2.2.2]octan-1-yl)methyl)cyclohexane carboxamide] |
| 0.268 | CCOc1ccnc(-c2cccc(N(CC34CCC(c5nc(C6CC6)no5)(CC3)CC4)C(=O)C3CCCCC3)c2)c1 [Example 77, N-((4-(3-cyclopropyl-1,2,4-oxadiazol-5-yl)bicyclo[2.2.2]octan-1-yl)methyl)-N-(3-(4-ethoxypyridin-2-yl)phenyl)cyclohexane carboxamide] |
| 0.181 | CCOc1cc(-c2cccc(N(CC34CCC(c5nc(C6CC6)no5)(CC3)CC4)C(=O)C3CCCCC3)c2)ccn1 [Example 78, N-((4-(3-cyclopropyl-1,2,4-oxadiazol-5-yl)bicyclo[2.2.2]octan-1-yl)methyl)-N-(3-(2-ethoxypyridin-4-yl)phenyl)cyclohexane carboxamide] |
| 0.408 | CCOc1cc(-c2cccc(N(CC34CCC(c5nc(C6CC6)no5)(CC3)CC4)C(=O)C3CCC(F)(F)CC3)c2)ccn1 [Example 79, N-((4-(3-cyclopropyl-1,2,4-oxadiazol-5-yl)bicyclo[2.2.2]octan-1-yl)methyl)-N-(3-(2-ethoxypyridin-4-yl)phenyl)-4,4-difluorocyclohexane-1-carboxamide] |
| 0.532 | COc1cc(-c2cccc(N(CC34CCC(c5nnc(C)s5)(CC3)CC4)C(=O)C3CCCCC3)c2)ccn1 [Example 80, N-(3-(2-methoxypyridin-4-yl)phenyl)-N-((4-(5-methyl-1,3,4-thiadiazol-2-yl)bicyclo[2.2.2]octan-1-yl)methyl)cyclohexanecarboxamide] |
| 2.5 | COc1cc(-c2cccc(N(CC34CCC(c5nnc(C)s5)(CC3)CC4)C(=O)C3CCOCC3)c2)ccn1 [Example 81, N-(3-(2-methoxypyridin-4-yl)phenyl)-N-((4-(5-methyl-1,3,4-thiadiazol-2-yl)bicyclo[2.2.2]octan-1-yl)methyl)tetrahydro-2H-pyran-4-carboxamide] |
| 4.76 | COc1cc(-c2cccc(N(CC34CCC(c5nnc(C)s5)(CC3)CC4)C(=O)C3CCC(F)(F)CC3)c2)ccn1 [Example 82, 4,4-difluoro-N-(3-(2-methoxypyridin-4-yl)phenyl)-N-((4-(5-methyl-1,3,4-thiadiazol-2-yl)bicyclo[2.2.2]octan-1-yl)methyl)cyclohexane-1-carboxamide] |
